Test results from ChEMBL document CHEMBL1136322, “QSAR study on antibacterial activity of sulphonamides and derived Mannich bases” (Bioorg Med Chem Lett, 2003).

Experiments:
Bacillus subtilis [1] = assay: Antibacterial activity against Bacillus subtilis at a concentration of 120 ug/mL; assay type: functional
Bacillus subtilis [2] = assay: Antibacterial activity against Bacillus subtilis at a concentration of 80 ug/mL; assay type: functional
Escherichia coli [3] = assay: Antibacterial activity against Escherichia coli at a concentration of 10 ug/mL; assay type: functional
[4] = Lethal dose after intraperitoneal administration in mice; assay type: toxicity; settings: mouse, in vivo, ip
Bacillus subtilis [5] = assay: Antibacterial activity against Bacillus subtilis at a concentration of 40 ug/mL; assay type: functional
Bacillus subtilis [6] = assay: Antibacterial activity against Bacillus subtilis at a concentration of 160 ug/mL; assay type: functional
Escherichia coli [7] = assay: Antibacterial activity against Escherichia coli at a concentration of 40 ug/mL; assay type: functional
[8] = Toxic effect after oral administration (6400 mg/kg) was determined in mice; No effect; assay type: toxicity, organism-based; settings: mouse, in vivo
Klebsiella pneumoniae [9] = assay: Antibacterial activity against Klebsiella pneumoniae at a concentration of 80 ug/mL; assay type: functional
Klebsiella pneumoniae [10] = assay: Antibacterial activity against Klebsiella pneumoniae at a concentration of 40 ug/mL; assay type: functional
Klebsiella pneumoniae [11] = assay: Antibacterial activity against Klebsiella pneumoniae at a concentration of 160 ug/mL; assay type: functional
Escherichia coli [12] = assay: Antibacterial activity against Escherichia coli at a concentration of 80 ug/mL; assay type: functional
Klebsiella pneumoniae [13] = assay: Antibacterial activity against Klebsiella pneumoniae at a concentration of 120 ug/mL; assay type: functional
Escherichia coli [14] = assay: Antibacterial activity against Escherichia coli at a concentration of 20 ug/mL; assay type: functional

Structure (SMILES) | Zone of inhibition (Bacillus subtilis [1]) [mm] | Zone of inhibition (Bacillus subtilis [2]) [mm] | Zone of inhibition (Escherichia coli [3]) [mm] | Lethal dose [4] [mg/kg] | Zone of inhibition (Bacillus subtilis [5]) [mm] | Zone of inhibition (Bacillus subtilis [6]) [mm] | Zone of inhibition (Escherichia coli [7]) [mm] | Toxic effect [8] | Zone of inhibition (Klebsiella pneumoniae [9]) [mm] | Zone of inhibition (Klebsiella pneumoniae [10]) [mm] | Zone of inhibition (Klebsiella pneumoniae [11]) [mm] | Zone of inhibition (Escherichia coli [12]) [mm] | Zone of inhibition (Klebsiella pneumoniae [13]) [mm] | Zone of inhibition (Escherichia coli [14]) [mm]
Cc1cc(NS(=O)(=O)c2ccc(NCNC(=O)c3ccc(NC(=O)c4cccnc4)cc3)cc2)no1 | 20.7 | 18.6 | 11.3 | 1000 | 14.1 | 23.5 | 11.8 | Not Active | 14.7 | 12.5 | 13.7 | 13.4 | 14.4 | 11.5
Nc1ccc(S(=O)(=O)Nc2ncccn2)cc1 [SULFADIAZINE] | 26.3 | 27.2 | 9.7 | – | 20.8 | 26.9 | 22.2 | – | 29.2 | 27 | 25.6 | 25.5 | 29.5 | 17.2
Cc1cc(C)nc(NS(=O)(=O)c2ccc(NCNC(=O)c3ccc(NC(=O)c4cccnc4)cc3)cc2)n1 | 13.6 | 11.2 | 11.4 | 1000 | 6 | 17.6 | 13.7 | Not Active | – | – | – | 14.1 | – | 13.9
Nc1ccc(S(N)(=O)=O)cc1 [SULFANILAMIDE] | – | – | 20.4 | – | – | – | 22.8 | – | – | – | – | 25.4 | – | 22.3
N=C(N)NS(=O)(=O)c1ccc(NCNC(=O)c2ccc(NC(=O)c3cccnc3)cc2)cc1 | – | – | 10.9 | 1000 | – | – | 11 | Not Active | – | – | – | 11.7 | – | 11.4
Cc1nnc(NS(=O)(=O)c2ccc(N)cc2)s1 [SULFAMETHIZOLE] | – | – | 16.2 | – | – | – | 22.2 | – | – | – | – | 25.5 | – | 17.4
NS(=O)(=O)c1ccc(NCNC(=O)c2ccc(NC(=O)c3cccnc3)cc2)cc1 | – | – | 13.1 | – | – | – | 13.2 | – | 12 | 11.1 | 21.4 | 13.2 | 13.7 | 12.7
Cc1cc(C)nc(NS(=O)(=O)c2ccc(N)cc2)n1 [SULFAMETHAZINE] | 21.7 | 19.9 | 15.1 | – | 15.4 | 22 | 18.8 | – | – | – | – | 18.5 | – | 16.9
Cc1nnc(NS(=O)(=O)c2ccc(NCNC(=O)c3ccc(NC(=O)c4cccnc4)cc3)cc2)s1 | – | – | 12.4 | 1000 | – | – | 14.4 | Not Active | – | – | – | 15 | – | 14.9
O=C(NCNc1ccc(S(=O)(=O)Nc2ncccn2)cc1)c1ccc(NC(=O)c2cccnc2)cc1 | 22.9 | 20.4 | 10.4 | 1000 | 15.4 | 25.3 | 13.7 | Not Active | 18.3 | 18.9 | 20.9 | 18.7 | 19.2 | 10.6
Cc1cc(NS(=O)(=O)c2ccc(N)cc2)no1 [SULFAMETHOXAZOLE] | 27.4 | 25.4 | 19.6 | – | 22.8 | 27.9 | 23.2 | – | 22.4 | 11.6 | 6 | 23.6 | 26.4 | 22.9
